We go through 23 compounds from ChEMBL document CHEMBL3588775, “Synthesis and pharmacological evaluation of N-benzyl substituted 4-bromo-2,5-dimethoxyphenethylamines as 5-HT2A/2C partial agonists” (Bioorg Med Chem, 2015).

pEC50, pKi: −log10 of the molar value.

In experiment [1] the target is T1, Serotonin 2 receptors; 5-HT2a & 5-HT2c (Homo sapiens) (UniProt P28223+P28335). Put plainly: Selectivity for 5-HT2A receptor (unknown origin) over 5-HT2C receptor (unknown origin) by PDSP assay.
The target in experiment [2] is T2, 5-hydroxytryptamine receptor 2A (Homo sapiens, UniProt P28223). Nature of the experiment: Binding affinity to 5-HT2A receptor (unknown origin) by PDSP assay.
T2 sequence (P28223 whole entry): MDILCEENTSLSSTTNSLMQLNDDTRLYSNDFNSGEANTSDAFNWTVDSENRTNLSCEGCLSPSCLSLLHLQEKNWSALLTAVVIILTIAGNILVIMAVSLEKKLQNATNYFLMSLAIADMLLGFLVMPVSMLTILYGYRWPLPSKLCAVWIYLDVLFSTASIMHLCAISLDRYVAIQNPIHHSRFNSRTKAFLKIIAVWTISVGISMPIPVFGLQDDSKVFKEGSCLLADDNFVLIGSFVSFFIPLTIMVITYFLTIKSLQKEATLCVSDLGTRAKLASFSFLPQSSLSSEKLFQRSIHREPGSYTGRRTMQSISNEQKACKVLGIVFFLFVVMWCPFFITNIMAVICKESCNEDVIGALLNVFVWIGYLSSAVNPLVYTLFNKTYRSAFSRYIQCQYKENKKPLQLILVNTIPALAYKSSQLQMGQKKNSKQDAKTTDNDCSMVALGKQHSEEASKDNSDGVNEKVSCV
Experiment [3] concerns the target T3, 5-hydroxytryptamine receptor 2C (Homo sapiens, UniProt P28335).
T3 sequence (P28335 whole entry): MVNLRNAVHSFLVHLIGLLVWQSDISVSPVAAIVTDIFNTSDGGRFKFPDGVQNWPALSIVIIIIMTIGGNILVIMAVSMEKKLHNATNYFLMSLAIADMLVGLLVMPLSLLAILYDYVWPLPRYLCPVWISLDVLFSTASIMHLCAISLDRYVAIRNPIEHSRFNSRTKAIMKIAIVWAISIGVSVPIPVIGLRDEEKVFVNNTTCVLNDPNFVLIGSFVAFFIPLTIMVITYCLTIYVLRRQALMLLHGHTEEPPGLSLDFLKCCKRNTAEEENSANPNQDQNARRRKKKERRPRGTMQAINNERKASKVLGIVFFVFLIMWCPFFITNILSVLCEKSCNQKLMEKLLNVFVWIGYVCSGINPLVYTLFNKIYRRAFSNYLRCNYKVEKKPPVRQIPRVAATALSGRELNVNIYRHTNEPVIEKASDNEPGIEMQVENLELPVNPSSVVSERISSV
Put plainly: Binding affinity to 5-HT2C receptor (unknown origin) by PDSP assay.

In experiment [4] the target is T4, 5-hydroxytryptamine receptor 2C (Homo sapiens) (UniProt P28335).
T4 sequence (whole entry): T3 sequence (P28335 whole entry)
Nature of the experiment: Partial agonist activity at human 5-HT2C receptor expressed in human tsA201 cells after 30 mins by inositol phosphate turnover assay relative to 5-HT. It counts as functional, cell-based.

The target in experiment [5] is T5, 5-hydroxytryptamine receptor 2C (Rattus norvegicus, UniProt P08909).
T5 sequence (P08909 whole entry): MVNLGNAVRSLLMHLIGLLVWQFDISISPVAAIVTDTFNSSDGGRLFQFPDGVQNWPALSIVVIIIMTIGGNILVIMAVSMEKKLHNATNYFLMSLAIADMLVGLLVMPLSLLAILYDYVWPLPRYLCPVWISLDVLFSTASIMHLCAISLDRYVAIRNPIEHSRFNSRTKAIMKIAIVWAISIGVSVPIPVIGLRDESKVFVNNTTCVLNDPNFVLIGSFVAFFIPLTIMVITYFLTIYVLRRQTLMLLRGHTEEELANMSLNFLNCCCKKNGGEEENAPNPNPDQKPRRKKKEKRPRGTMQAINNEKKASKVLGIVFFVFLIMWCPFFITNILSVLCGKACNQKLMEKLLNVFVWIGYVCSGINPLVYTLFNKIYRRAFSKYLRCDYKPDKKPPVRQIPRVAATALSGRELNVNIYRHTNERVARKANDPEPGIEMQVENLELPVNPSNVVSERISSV
Nature of the experiment: Displacement of [3H]-Mesulergine from rat 5-HT2C receptor by PDSP assay. Background: Loss of bound radioactivity is the signal in a displacement assay; it reports binding, not function.

Experiment [6] is described as follows: Selectivity for human 5-HT2A receptor over rat 5-HT2C receptor by PDSP assay.
Experiment [7] has as its target T2, 5-hydroxytryptamine receptor 2A. Put plainly: Partial agonist activity at human 5-HT2A receptor expressed in human tsA201 cells after 30 mins by inositol phosphate turnover assay. It counts as functional, cell-based.
Experiment [8] addresses T3, 5-hydroxytryptamine receptor 2C. Nature of the experiment: Partial agonist activity at human 5-HT2C receptor expressed in human tsA201 cells after 30 mins by inositol phosphate turnover assay. Type of experiment: functional, cell-based.
For experiment [9], the target named is T1, Serotonin 2 receptors; 5-HT2a & 5-HT2c (Homo sapiens). Nature of the experiment: Selectivity for human 5-HT2A receptor over human 5-HT2C receptor by inositol phosphate turnover assay. Type of experiment: functional.
Experiment [10] has as its target T2, 5-hydroxytryptamine receptor 2A. Put plainly: Partial agonist activity at human 5-HT2A receptor expressed in human tsA201 cells after 30 mins by inositol phosphate turnover assay relative to 5-HT. It counts as functional, cell-based.
For experiment [11] the target is unchanged. Nature of the experiment: Displacement of [3H]-Ketanserin from human 5-HT2A receptor by PDSP assay.
Experiment [12] has as its target T3, 5-hydroxytryptamine receptor 2C. Put plainly: Partial agonist activity at human 5-HT2C receptor expressed in HEK293 cells preincubated for 1 hr at 37 degC followed by incubated for 15 mins at room temperature by IP-One assay. It counts as cell-based.
Experiment [13] deals with T2, 5-hydroxytryptamine receptor 2A. Nature of the experiment: Partial agonist activity at human 5-HT2A receptor expressed in HEK293 cells preincubated for 1 hr at 37 degC followed by incubated for 15 mins at room temperature by IP-One assay relative to 5-HT. It counts as cell-based.
Experiment [14] has as its target T1, Serotonin 2 receptors; 5-HT2a & 5-HT2c (Homo sapiens). Nature of the experiment: Selectivity for human 5-HT2A receptor over human 5-HT2C receptor by IP-One assay.
The target of experiment [15] is T2, 5-hydroxytryptamine receptor 2A.
Experiment [16] has as its target T4, 5-hydroxytryptamine receptor 2C (Homo sapiens). Nature of the experiment: Partial agonist activity at human 5-HT2C receptor expressed in HEK293 cells preincubated for 1 hr at 37 degC followed by incubated for 15 mins at room temperature by IP-One assay relative to 5-HT. It counts as cell-based.

T1 sequence (P28223 whole entry, looked up, one chain of several): as the sequence (P28223 whole entry) above

As a reminder, the pKi is the Ki on a negative log10 scale, so that one unit is a factor of ten. Low values mean a high Ki, high ones a low Ki. Regarding `COc1ccc(OC)c(CNCCc2cc(OC)c(Br)cc2OC)c1`, the Selectivity ratio in experiment [1] stood at 2.5. Besides, the results for the pKi in [2] and in experiment [3] were 7.51 and 7.11, respectively.

Regarding `COc1cc(CCNCc2ccc[nH]c2=O)c(OC)cc1Br`, the Selectivity ratio in experiment [1] was 1. For the same compound, the pKi was 6.91 in experiment [2] and 6.92 in experiment [3].

Regarding `COc1cc(CCNCc2cccnc2OC)c(OC)cc1Br`, in [1], the Selectivity ratio amounted to 0.9. For the same compound, the pKi is 7.10 in [2] and 7.15 in experiment [3].

Turning to `COc1cc(CCNCc2cccnc2)c(OC)cc1Br`, the Selectivity ratio in [1] worked out at 1.4. Also, the results for the pKi in experiment [2] and in experiment [3] were 7.08 and 6.92, respectively.

On to `COc1cc(CCNCc2cccc3ccoc23)c(OC)cc1Br`, for which the Selectivity ratio in experiment [1] stood at 4.2. Further, the results for the pKi in [2] and in experiment [3] were 9.22 and 8.60, respectively.

For the compound `COc1cc(CCNCc2cccc3cn[nH]c23)c(OC)cc1Br`, the Selectivity ratio in [1] came out at 2. Also, the pKi in experiment [2] was 7.92; in experiment [3] it was 7.62.

With `COc1cc(CCNCc2cccc(O)c2)c(OC)cc1Br`, in experiment [1], the Selectivity ratio came out at 16. The pKi is 8.87 in experiment [2] and 7.68 in [3].

The Emax is the size of the effect at its maximum, as opposed to the concentration needed. Usually pEC50 stands for the negative decadic logarithm of the EC50, by convention in mol/L. Low values mean a high EC50, high ones a low EC50. With `COc1cc(CCNCc2cccc3c2OCO3)c(OC)cc1Br`, the Emax in experiment [4] was 84%; in experiment [10] it was 71%. Further, the pKi in experiment [5] is 7.95; in [11] it was 9.22. The Selectivity ratio amounted to 18.6 in experiment [6] and 18 in experiment [9]. Also, the pEC50 was 7.98 in experiment [7] and 6.66 in experiment [8].

Turning to `COc1cc(CCNCc2cccc3cc[nH]c23)c(OC)cc1Br`, in experiment [1], the Selectivity ratio was found to be 5.1. Also, the pKi in [2] is 7.89; in experiment [3], 7.18.

Regarding `COc1cc(CCNCc2c(OC)cccc2OC)c(OC)cc1Br`, the figures for the Selectivity ratio in [1] and in experiment [14] were 0.06 and 16, respectively. Besides, the pKi in experiment [2] is 6.50; in [3], 7.76. For the same compound, the values for the pEC50 in [12] and in experiment [15] were 4.06 and 5.27, respectively. Besides, the Emax in [13] turned out to be 53%; in experiment [16], 33%.

As to `COc1ccc(CNCCc2cc(OC)c(Br)cc2OC)c(OC)c1`, the Selectivity ratio in [1] is 1.3. Further, the pKi in experiment [2] is 7.70; in [3] it was 7.57.

Turning to `COc1cc(CCNCc2cccc(OC)c2F)c(OC)cc1Br`, the Selectivity ratio stood at 17 in experiment [1] and 2.7 in experiment [14]. Further, the pKi in experiment [2] was 8.48; in experiment [3], 7.25. Moreover, the pEC50 in experiment [12] was 6.55; in [15], 6.98. The Emax turned out to be 22% in [13] and 16% in experiment [16].

`COc1cccc(CNCCc2cc(OC)c(Br)cc2OC)c1`: the Selectivity ratio in experiment [1] is 11. The pKi was 9.36 in experiment [2] and 8.33 in experiment [3].

Take `COc1cc(CCNCc2ccccc2OC)c(OC)cc1Br`: the Selectivity ratio in experiment [6] came to 100.

In the case of `COc1cc(CCNCc2ccncc2)c(OC)cc1Br`, in experiment [1], the Selectivity ratio was 1.1. Moreover, the pKi was 6.85 in experiment [2] and 6.81 in experiment [3].

Consider `COc1cc(CCNCc2ccccn2)c(OC)cc1Br`, for which, in experiment [1], the Selectivity ratio was found to be 1.1. Further, the pKi in experiment [2] was 7.41; in experiment [3], 7.38.

As for `COc1cc(CCNCc2cccc(OC)c2OC)c(OC)cc1Br`, the Selectivity ratio in experiment [1] was found to be 7.5. Moreover, the pKi was 8.51 in experiment [2] and 7.63 in experiment [3].

In the case of `COc1cc(CCNCc2cccc3ncoc23)c(OC)cc1Br`, the Selectivity ratio in experiment [1] amounted to 2.9. Also, the pKi in [2] is 7.96; in experiment [3], 7.49.

`COc1cc(CC(C)N)c(OC)cc1I` (configuration not stated) showed a pEC50 in experiment [12] of 7.34. For the same compound, the figures for the Emax in experiment [13] and in experiment [16] were 87% and 119%, respectively.

`COc1cc(CCNCc2cccc3c2OCC3)c(OC)cc1Br`: the Selectivity ratio in experiment [1] is 17; in experiment [14], 7.1. Besides, the negative logarithm of the Ki (pKi) in experiment [2] was 9.70; in experiment [3], 8.47. The negative logarithm of the EC50 (pEC50) was 7.49 in experiment [12] and 8.34 in experiment [15]. Besides, the Emax in experiment [13] amounted to 33%; in experiment [16] it was 52%.

On to `COc1cc(CCNCc2cccc(OC)c2O)c(OC)cc1Br`, for which the figures for the Selectivity ratio in experiment [1] and in experiment [14] were 32 and 457, respectively. Further, the values for the pKi in experiment [2] and in [3] were 9.70 and 8.20, respectively. Further, the negative logarithm of the EC50 (pEC50) in [12] was 4.81; in experiment [15], 7.47. Besides, the values for the Emax in experiment [13] and in [16] were 21% and 52%, respectively.

For `COc1cc(CCNCc2cccc3nc[nH]c23)c(OC)cc1Br`, the Selectivity ratio in [1] was determined as 1.2. Moreover, the values for the pKi in experiment [2] and in experiment [3] were 8.11 and 8.03, respectively.

Regarding `COc1cc(CCNCc2cccc3ccsc23)c(OC)cc1Br`, the Selectivity ratio in experiment [1] is 4.5. Besides, the pKi was 8.77 in [2] and 8.11 in [3].
